We go through one compound from the NIST ThermoML archive (doi:10.1021/acs.jced.9b00854).

The nature of data set [1]: Molar enthalpy of transition or fusion. To be noted: Crystal; DSC.
The conditions of data set [2]: Crystal.

Numbers after ± are expanded uncertainties.

A word on the mass density: it is mass per unit of volume. Turning to `CCNC(=S)NCC` [N,N'-diethylthiourea], in data set [1], the “Molar enthalpy of transition or fusion” value was determined as 3.75 ± 0.206 kcal/mol. Also, in data set [2] (293 K, 101.33 kPa, X-ray diffraction), the mass density amounted to 1120 ± 5.8 kg/m3. In addition, in data set [2] (DSC), the Triple point temperature was 351.28 ± 0.87 K.
